Reference: patent US20250041294A1, “Synergistic compositions for use in the treatment of cancer” (Sartar Therapeutics Oy, priority 2021, published 2025)
Where two headings read alike, the source gives them in different places.

Experiments:
Format in all cases: cell-based
[1] = tested on: GIST882, GOT3 and SA4 cell lines; assay: High throughput drug sensitivity and resistance test, average over cell lines (BAY2666605 combination); conditions: for Average DSS (aDSS): BAY2666605 combination, average of GIST882, SA4 and GOT3, aDSS higher than 3.0 = synergy
Method: (§1) Cell lines. PDE3A-positive (GIST882, SA4, and GOT3) and PDE3A-negative cell lines (93TT449, 94T778, LPS141, MLS17656-92, MLS402-91, and SW872) were cultured in RPMI Medium 1640 (Gibco) with 5-, 10- or 20% fetal bovine serum (FBS, gibco), 100 U/mL of penicillin, 100 […] and 0.03 mg/mL of L-glutamine (Pen Strep Glut, Gibco, 10378-016) in a humidified, 5% CO2 atmosphere at 37° C.
(§2) High throughput drug sensitivity and resistance test. A sensitivity and resistance of cancer cell lines to 528 compounds were investigated in 9 cell lines (GIST882, SA4, GOT3, 93TT449, 94T778, LPS141, MLS17656-92, MLS402-91, and SW872). In addition, same compounds were investigated together with anagrelide hydrochloride (100 nM) treatment in the PDE3A low expressing cell lines SA4 and GOT3, and with BAY2666605 (40 nM) in all PDE3A-positive cell lines GIST882, SA4 and GOT3. The compounds were dissolved in 100% dimethyl sulfoxide or water and plated in 10-fold dilutions covering a 10,000-fold concentration range on flat clear bottom 384-well microplates as described in detail earlier (Pulkka O P, et al 2019). A cell viability was measured after 72 hours using CellTiter-Glo Cell Viability assay (Promega Inc.) and PHERAstar FS plate reader (BMG Labtech). The data were normalized to negative (0.01% dimethyl sulfoxide only) and positive (100 μmol/L benzethonium chloride) controls.
(§3) A four-parameter logistic dose-response curves were estimated by using the Marquardt-Levenberg algorithm and Breeze analysis platform. Drug responses to the test compounds were measured using the drug sensitivity score (DSS). Drug synergy partners, which were common in investigated cell lines were identified as following: DSS value of a single agent was subtracted from the DSS value of anagrelide-drug combination in single cell lines. […] The analysis was repeated by using BAY2666605 as a PDE3A modulator.

GIST882 cell line = assay: High throughput drug sensitivity and resistance test (CellTiter-Glo, 72 hours); conditions: drug combined with BAY2666605 (40 nM) minus drug alone
Method: High throughput drug sensitivity and resistance test. […] In addition, same compounds were investigated together with anagrelide hydrochloride (100 nM) treatment in the PDE3A low expressing cell lines SA4 and GOT3, and with BAY2666605 (40 nM) in all PDE3A-positive cell lines GIST882, SA4 and GOT3. […] A cell viability was measured after 72 hours using CellTiter-Glo Cell Viability assay (Promega Inc.) and PHERAstar FS plate reader (BMG Labtech). The data were normalized to negative (0.01% dimethyl sulfoxide only) and positive (100 μmol/L benzethonium chloride) controls.
as §3

SA4 cell line = assay: as above; conditions: drug combined with BAY2666605 (40 nM) minus drug alone, SA4
Method: as §1, §2, §3

GOT3 cell line = assay: as above; conditions: drug combined with BAY2666605 (40 nM) minus drug alone, GOT3
Method: as §1, §2, §3

[2] = with anagrelide (GOT3, SA4) or BAY2666605 (GIST882, GOT3, SA4)

| Structure (SMILES) | Average DSS (aDSS) [1] | GIST882 cell line: DSS(combo (BAY2666605))-DSS(drug) (GIST882 cell line) | SA4 cell line: DSS(combo (BAY2666605))-DSS(drug) (SA4 cell line) | GOT3 cell line: DSS(combo (BAY2666605))-DSS(drug) (GOT3 cell line) | synergy in high-throughput screening (in words) [1, 2] | synergy in high-throughput screening (in words) [1] |
| --- | --- | --- | --- | --- | --- | --- |
| Cn1nnc2c(C(N)=O)ncn2c1=O [Temozolomide, temozolomide] | 4.2 | 5.4 | 5.2 | 1.9 |  |  |
| CN(C)CCCOc1ccc(-c2ccc3ncc4c(c3c2)n(C2CCOCC2)c(=O)n4C)cn1 [AZD0156] | 3.1 | 7.5 | 3 | −1.2 | synergistic |  |
| C[C@@]1(C(=O)Nc2ccc(F)nc2)CCCN1c1nc(Nc2cc(C3CC3)n[nH]2)c2cccn2n1 [BMS-754807] | 4.2 | 0.7 | 7.5 | 4.4 | synergistic |  |
| COc1ccc(-c2ccc3ncc4c(c3c2)n(-c2ccc(N3CCNCC3)c(C(F)(F)F)c2)c(=O)n4C)cn1 [NVP-BGT226] | 4.8 | 6.2 | 8.1 | 0.1 | synergistic |  |
| O=C(CCCCCCNC(=O)c1cnc(N(c2ccccc2)c2ccccc2)nc1)NO [Rocilinostat, rocilinostat] | 3.3 | 1.4 | 7.5 | 0.9 |  | synergistic |
| O=C(/C=C\n1cnc(-c2cc(C(F)(F)F)cc(C(F)(F)F)c2)n1)NNc1cnccn1 [Selinexor] | 4.2 | 7.9 | 5.4 | −0.7 | synergistic |  |
| CC(C)C[C@H](NC(=O)[C@H](Cc1ccccc1)NC(=O)c1cnccn1)B(O)O [Bortezomib, bortezomib] | 7.8 | 1.7 | 11.2 | 10.4 |  |  |
| COc1c(OCCCN2CCOCC2)ccc2c1N=C(NC(=O)c1cnc(N)nc1)N1CCN=C21 [Copanlisib, copanlisib] | 4.5 | 6.8 | 8.1 | −1.4 | synergistic |  |
| Cn1c(=O)n(-c2ccc(C(C)(C)C#N)cc2)c2c3cc(-c4cnc5ccccc5c4)ccc3ncc21 [Dactolisib, dactolisib] | 5.3 | 3.1 | 4.6 | 8.2 | synergistic |  |
| COc1ccc(C[C@H](NC(=O)[C@H](C)NC(=O)CN2CCOCC2)C(=O)N[C@@H](Cc2ccccc2)C(=O)C2(C)CO2)cc1 (stereo in doubt) [ONX-0914] | 4.6 | 8.4 | 4.6 | 0.9 | synergistic |  |
| COc1ncc(-c2ccc3nccc(-c4ccnnc4)c3c2)cc1NS(=O)(=O)c1ccc(F)cc1F [Omipalisib, omipalisib] | 4.5 | 7.4 | 6.5 | −0.4 | synergistic |  |
